Assay results as given in ChEMBL document CHEMBL1144201, “Design and synthesis of a series of meta aniline-based LFA-1 ICAM inhibitors” (Bioorg Med Chem Lett, 2008).

What was measured:
[1] = in vivo; details: rat, 1 mg/kg
[2] = in vivo; details: rat, po, 1 mg/kg
[3] = in vivo; details: rat, 1 mg/kg; remark: listed apart in the source

| half-life [1] | bioavailability [2] | clearance [3] | SMILES |
| --- | --- | --- | --- |
| 4.5 h | 27% |  | Nc1cccc(Sc2ccc(/C=C/C(=O)N3CCOCC3)c(C(F)(F)F)c2C(F)(F)F)c1 |
| 1.8 h | 13% | 8.3 mL/min/kg | O=C(/C=C/c1ccc(Sc2cccc(N[C@H]3CC[C@@H](C(=O)O)CC3)c2)c(C(F)(F)F)c1C(F)(F)F)N1CCOCC1 |
| 7 h | 32% |  | CC(C)N1CCC(Nc2cccc(Sc3ccc(/C=C/C(=O)N4CCOCC4)c(C(F)(F)F)c3C(F)(F)F)c2)CC1 |
